According to PMC8448162, “Single- and Multiple-Ascending-Dose Study of the Safety, Tolerability, and Pharmacokinetics of the Polymyxin Derivative SPR206” (Antimicrobial Agents and Chemotherapy, 2021):
Positions of bridges follow the written chain, without caps; N, C: chain ends. Non-standard residues stand in square brackets, D forms with d. Residues, ends and D or L forms follow the SMILES beside them. *: point of attachment. X1 = NC[C@@H](CC(=O)*)c1cccc(Cl)c1; Dab = NCC[C@H](N)C(=O)O; Dap = NC[C@H](N)C(=O)O

Test: clinical
Set-up: species or system human
Settings: in vivo; for AUC(0-inf): AUC0–inf; for clearance: CL; for Vd: Vz
Protocol: This was a single-center, phase 1, randomized, double-blind, placebo-controlled, first-in-human study to assess the safety, tolerability, and PK of SPR206 following SAD and MAD administrations (Fig. 7). In the SAD phase, subjects received a single i.v. dose of SPR206, and in the MAD phase, subjects received i.v. doses of SPR206 every 8 h (q8h) over a period of 7 to 14 days. SPR206 was administered as a 1 h i.v. infusion.
Maximum plasma concentration (Cmax), area under the concentration-time curve from time zero to last measurable time point (AUC0–t), area under the concentration-time curve from time zero to infinity (AUC0–inf), area under the concentration-time curve from time zero to tau (AUC0–tau), time to maximum concentration (Tmax), terminal elimination rate constant (kel), terminal half-life (t1/2), terminal clearance (CL), and volume of distribution (Vz) were determined. In addition, area under the concentration-time curve from 0 to 24 h after the start of infusion (AUC0–24) was determined for the SAD phase, and area under the concentration-time curve from time zero to 8 h from start of infusion (AUC0–8) on day 1 and 0 to 48 h (AUC0–48) following the last dose on day 14 as well as predose trough concentrations were determined for the MAD phase. Urine parameters included cumulative amount of drug excreted in successive urine intervals (Ae), renal clearance (CLR), fraction of cumulative fraction of dose recovered in urine as unchanged drug (Fe), and percentage fraction of cumulative fraction of dose recovered in urine as unchanged drug (Fe%). PK parameters were determined by noncompartmental analysis using Phoenix WinNonlin 8.1.
For the SAD phase, blood samples were obtained predose and at 30, 60, 75, 90, 105, 120, and 150 min and at 3, 5, 8, 12, and 24 h following the start of infusion. Urine was collected for PK assessment predose and over the intervals of 0 to 4 h, 4 to 8 h, 8 to 12 h, and 12 to 24 h after the start of infusion.
In the MAD phase, plasma samples for PK analysis were collected (i) on day 1—pre-dose and at 30, 60, 75, 90, 105, 120, and 150 min and at 3, 5, and 8 h following start of the first infusion; (ii) prior to the morning dose (within 10 min) on days 2, 3, 5, 7, 9, 11, and 13; and (iii) predose and 30, 75, 90, 105, 120, and 150 min and 3, 5, 8, and 12 h (day 14), 24, 36 (day 15), and 48 h (day 16) following start of the last infusion. Urine was collected for PK assessment on day 1 predose, over the intervals 0 to 4 h and 4 to 8 h after start of first infusion, and on days 14 and 15 over the intervals 0 to 4 h, 4 to 8 h, 8 to 12 h, and 12 to 24 h after start of day 14 infusion. Total 24-h urine for calculating CrCl was collected from the morning of day −1 to predose on day 1 and on days 15 and 16 over the interval from 24 to 48 h after the start of the day 14 infusion. Urine creatinine concentrations were measured using 24-h collections prior to the first dose on day 1 and over the 24 to 48 h following start of infusion of the last dose (day 14). Plasma and urine samples for SPR206 levels were analyzed using a validated liquid chromatography-tandem mass spectrometry (LC-MS/MS) method. The assay range for SPR206 was 50 to 5,000 ng/ml in plasma and 100 to 50,000 ng/ml in urine. In plasma, assay precision was 1.3 to 7.7%, accuracy was 1.2 to 9.5%, stability was 194 h at 4°C, and reproducibility was 98.4%. In urine, assay precision was 1.7 to 7.5%, accuracy was −4.8 to 7.3%, stability was 147 h at 4°C, and reproducibility was 97.8%.
Plasma and urine concentrations and PK parameters for SPR206 were summarized for each treatment using descriptive statistics. In the SAD/MAD study, geometric means were calculated for AUC and Cmax. Analyses using linear models were performed to assess dose proportionality (both single dose and multiple dose), time dependence, accumulation, and attainment of steady state after multiple doses. […]

For `CC(C)C[C@@H]1NC(=O)[C@@H](Cc2ccccc2)NC(=O)[C@H](CCN)NC(=O)[C@@H](NC(=O)[C@H](CN)NC(=O)[C@@H](NC(=O)C[C@H](CN)c2cccc(Cl)c2)[C@@H](C)O)CCNC(=O)[C@H]([C@@H](C)O)NC(=O)[C@H](CCN)NC(=O)[C@H](CCN)NC1=O` [SPR206] (X1-T[Dap][Dab][Dab][dF]L[Dab][Dab]T; lactam 3-C (inferred)), the Tmax (human) was 1.1 to 1.3 h, the “accumulation ratio for AUC0–inf” value (human) was 1.3-1.8 and the “accumulation ratio for Cmax” value (human) was 1.1-1.3. The “geometric CV for AUC0-inf” value (human) was 6.9-17.4%, the “AUC0–8” value (human, 25 mg) was 4,391 ± 740 h · ng/ml and the “AUC0–inf” value (human, 25 mg) was 5,197 ± 945 h · ng/ml. The AUC%ext (human, 25 mg) was 10.0 ± 4.5 ng·h/mL, the CL (human, 25 mg) was 4.9 ± 0.9 L/h and the Cmax (human, 25 mg) was 1,410 ± 241 ng/ml. It also gave a Vz (human, 25 mg) of 21.3 ± 3.6 L, a half-life (human, 25 mg) of 2.7 ± 0.2 h and an AUC(0-t) (human, 25 mg, AUC0–8) of 5880 ng·h/mL. It also gave an AUC(0-t) (human, 25 mg, AUC0–48) of 7680 ng·h/mL, an AUC(0-inf) (human, 25 mg) of 7690 ng·h/mL and a clearance (human, 25 mg) of 73.3 mL/min. For the same compound, the Cmax (human, 25 mg, Cmax) was 1610 ng/mL, the half-life (human, 25 mg, Half-life) was 4 ± 0.6 h and the Vd (human, 25 mg) was 18.9 ± 2.6 L. For the same compound, the “AUC0–8” value (human, 50 mg) was 7,955 ± 951 h · ng/ml, the “AUC0–inf” value (human, 50 mg) was 9,243 ± 1,417 h · ng/ml and the CL (human, 50 mg) was 5.5 ± 0.8 L/h. The Cmax (human, 50 mg) was 2,525 ± 413 ng/ml, the half-life (human, 50 mg) was 2.7 ± 0.3 h and the AUC(0-t) (human, 50 mg, AUC0–8) was 10000 ng·h/mL. For the same compound, the AUC(0-t) (human, 50 mg, AUC0–48) was 12400 ng·h/mL, the AUC(0-inf) (human, 50 mg) was 12400 ng·h/mL and the clearance (human, 50 mg) was 83.3 mL/min. For the same compound, the Cmax (human, 50 mg, Cmax) was 2900 ng/mL, the half-life (human, 50 mg, Half-life) was 3.5 ± 0.9 h and the Vd (human, 50 mg) was 21.5 ± 1.8 L. The “AUC0–48” value (human, 100 mg) was 29,828 ± 5,112 h · ng/ml, the AUC(0-t) (human, 100 mg, AUC0–8) was 21300 ng·h/mL and the AUC(0-t) (human, 100 mg, AUC0–48) was 27500 ng·h/mL. It also gave an AUC(0-inf) (human, 100 mg) of 27700 ng·h/mL, a clearance (human, 100 mg) of 80 mL/min and a Cmax (human, 100 mg, Cmax) of 6340 ng/mL. The Vd (human, 100 mg) was 20.8 ± 2.9 L, the “AUC0–8” value (human, 150 mg) was 27,492 ± 3,452 h · ng/ml and the “AUC0–inf” value (human, 150 mg) was 30,981 ± 4,189 h · ng/ml. For the same compound, the CL (human, 150 mg) was 4.9 ± 0.6 L/h, the Cmax (human, 150 mg) was 8,990 ± 1,056 ng/ml and the Vz (human, 150 mg) was 19.6 ± 3.2 L. For the same compound, the “higher plasma AUC0–8 and Cmax relative to the mean values for the cohort” value (human, 150 mg) was “approximately 23%”, the AUC(0-t) (human, 150 mg, AUC0–8) was 41500 ng·h/mL and the AUC(0-t) (human, 150 mg, AUC0–48) was 55500 ng·h/mL. The AUC(0-inf) (human, 150 mg) was 56000 ng·h/mL, the clearance (human, 150 mg) was 61.7 mL/min and the Cmax (human, 150 mg, Cmax) was 11500 ng/mL. For the same compound, the Vd (human, 150 mg) was 17.1 ± 2.1 L, the half-life (human, half-life) was 2.4 to 4.1 h and the Tmax (human, iv, 10 mg) was 1 h. The AUC(0-t) (human, iv, 10 mg, AUC0–8) was 1560 ng·h/mL, the AUC(0-inf) (human, iv, 10 mg) was 1810 ng·h/mL and the clearance (human, iv, 10 mg) was 93.3 mL/min. For the same compound, the Cmax (human, iv, 10 mg, Cmax) was 495 ± 46.5 ng/mL, the half-life (human, iv, 10 mg, Half-life) was 2.6 ± 0.1 h and the Vd (human, iv, 10 mg) was 21 ± 3.4 L. It also gave a Tmax (human, iv, 25 mg) of 1 h, an AUC(0-t) (human, iv, 25 mg, AUC0–8) of 3810 ng·h/mL and an AUC(0-inf) (human, iv, 25 mg) of 4440 ng·h/mL. The clearance (human, iv, 25 mg) was 96.7 mL/min, the Cmax (human, iv, 25 mg, Cmax) was 1290 ng/mL and the half-life (human, iv, 25 mg, Half-life) was 2.8 ± 0.2 h. It also gave a Vd (human, iv, 25 mg) of 23.5 ± 4.3 L, a Tmax (human, iv, 50 mg) of 1 h and an AUC(0-t) (human, iv, 50 mg, AUC0–8) of 9380 ng·h/mL. The AUC(0-inf) (human, iv, 50 mg) was 10700 ng·h/mL, the clearance (human, iv, 50 mg) was 78.3 mL/min and the Cmax (human, iv, 50 mg, Cmax) was 3420 ng/mL. It also gave a half-life (human, iv, 50 mg, Half-life) of 2.6 ± 0.3 h, a Vd (human, iv, 50 mg) of 17.8 ± 2.9 L and a Tmax (human, iv, 100 mg) of 1.1 h. It also gave an AUC(0-t) (human, iv, 100 mg, AUC0–8) of 17300 ng·h/mL, an AUC(0-inf) (human, iv, 100 mg) of 20400 ng·h/mL and a clearance (human, iv, 100 mg) of 83.3 mL/min. It also gave a Cmax (human, iv, 100 mg, Cmax) of 5330 ng/mL, a half-life (human, iv, 100 mg, Half-life) of 3 ± 0.3 h and a Vd (human, iv, 100 mg) of 21.4 ± 2.8 L. It also gave a Tmax (human, iv, 200 mg) of 1.1 h, an AUC(0-t) (human, iv, 200 mg, AUC0–8) of 34500 ng·h/mL and an AUC(0-inf) (human, iv, 200 mg) of 40900 ng·h/mL. For the same compound, the clearance (human, iv, 200 mg) was 81.7 mL/min, the Cmax (human, iv, 200 mg, Cmax) was 11300 ng/mL and the half-life (human, iv, 200 mg, Half-life) was 3.4 ± 0.7 h. For the same compound, the Vd (human, iv, 200 mg) was 24 ± 3.1 L, the Tmax (human, iv, 300 mg) was 1.1 h and the AUC(0-t) (human, iv, 300 mg, AUC0–8) was 57700 ng·h/mL. The AUC(0-inf) (human, iv, 300 mg) was 71000 ng·h/mL, the clearance (human, iv, 300 mg) was 70 mL/min and the Cmax (human, iv, 300 mg, Cmax) was 18200 ng/mL. It also gave a half-life (human, iv, 300 mg, Half-life) of 4.1 ± 0.4 h, a Vd (human, iv, 300 mg) of 25.4 ± 3.3 L and a Tmax (human, iv, 400 mg) of 1.1 h. The AUC(0-t) (human, iv, 400 mg, AUC0–8) was 89300 ng·h/mL, the clearance (human, iv, 400 mg) was 61.7 mL/min and the Cmax (human, iv, 400 mg, Cmax) was 25400 ng/mL. For the same compound, the half-life (human, iv, 400 mg, Half-life) was 3.7 ± 0.5 h, the Vd (human, iv, 400 mg) was 19.4 ± 3.2 L and the “dose proportionality estimate (90% CI) for AUC0–inf” value was 1.11 (1.07, 1.14). For the same compound, the “dose proportionality estimate (90% CI) for AUC0–last” value was 1.14 (1.11, 1.18), the “dose proportionality estimate (90% CI) for Cmax” value was 1.05 (1.02, 1.08) and the “estimate of the exponent from the power model (90% CI) for AUC0–inf” value was 1.03 (0.94, 1.12). For the same compound, the “estimate of the exponent from the power model (90% CI) for AUC0–last” value was 1.07 (0.98, 1.16), the “estimate of the exponent from the power model (90% CI) for Cmax” value was 1.03 (0.96, 1.10) and the “intersubject variability in exposure” value was 10-25%. The “steady state achieved (based on Ctrough)” value was no more than 2 days.
